Data taken from patent US20250235543A1, “MODIFIED PROTEINS AND PROTEIN DEGRADERS” (Cullgen (Shanghai), Inc., priority 2021, published 2025).
Where two headings read alike, the source gives them in different places.

Columns and labels:
CDK4 = target: T1, CDK4 (Homo sapiens, UniProt P11802); assay: CDK4 percentage degradation in Calu-1 cells (immunoblotting); type: cell-based; conditions: read-out: CDK4 Degradation (200 nM)
T1 construct: endogenous in cells; host or cells: Calu-1
Procedure, shortened: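 Cultured cells were rinsed once in cold PBS and lysed in cold RIPA buffer containing protease and phosphatase inhibitors, with gentle agitation at 4° C. for 30 min. Lysates were centrifuged at 13,000 rpm for 10 min at 4° C., and protein was quantified by BCA. Samples were then separated by SDS-PAGE, detected with ECL, and the CDK4 bands quantified in Image Lab.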

cyclin D1 = assay: Cyclin D1 percentage degradation in Calu-1 cells (immunoblotting); type: cell-based; conditions: 200 nM, 16 hours
Procedure, shortened: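 Cells were rinsed once in cold PBS and lysed in cold RIPA buffer containing protease and phosphatase inhibitors, with gentle agitation at 4° C. for 30 min. Lysates were spun at 13,000 rpm for 10 min at 4° C., protein was measured by BCA, and samples were boiled in Laemmli buffer at 99° C. for 5 min before SDS-PAGE immunoblotting.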

T1 sequence (P11802 2-303 limits assumed): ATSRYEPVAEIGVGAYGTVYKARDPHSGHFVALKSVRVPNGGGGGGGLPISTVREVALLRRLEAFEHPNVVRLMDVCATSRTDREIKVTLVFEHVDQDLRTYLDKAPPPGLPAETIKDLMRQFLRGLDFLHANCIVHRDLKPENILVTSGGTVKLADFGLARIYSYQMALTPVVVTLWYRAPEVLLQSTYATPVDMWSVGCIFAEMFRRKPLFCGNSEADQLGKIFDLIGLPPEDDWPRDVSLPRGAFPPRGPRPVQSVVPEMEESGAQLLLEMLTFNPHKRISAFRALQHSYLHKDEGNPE
T1 sequence (P24385 whole entry partner): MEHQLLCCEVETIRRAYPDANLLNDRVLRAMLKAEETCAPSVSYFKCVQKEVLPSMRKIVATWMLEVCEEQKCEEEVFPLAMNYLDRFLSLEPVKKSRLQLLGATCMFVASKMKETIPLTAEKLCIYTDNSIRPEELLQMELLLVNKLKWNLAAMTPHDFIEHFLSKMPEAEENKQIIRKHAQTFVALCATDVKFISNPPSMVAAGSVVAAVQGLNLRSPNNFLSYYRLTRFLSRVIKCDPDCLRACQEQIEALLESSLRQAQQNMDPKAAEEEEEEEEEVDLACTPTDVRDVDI
T1 sequence (Q16531 2-1140 limits assumed, further chain): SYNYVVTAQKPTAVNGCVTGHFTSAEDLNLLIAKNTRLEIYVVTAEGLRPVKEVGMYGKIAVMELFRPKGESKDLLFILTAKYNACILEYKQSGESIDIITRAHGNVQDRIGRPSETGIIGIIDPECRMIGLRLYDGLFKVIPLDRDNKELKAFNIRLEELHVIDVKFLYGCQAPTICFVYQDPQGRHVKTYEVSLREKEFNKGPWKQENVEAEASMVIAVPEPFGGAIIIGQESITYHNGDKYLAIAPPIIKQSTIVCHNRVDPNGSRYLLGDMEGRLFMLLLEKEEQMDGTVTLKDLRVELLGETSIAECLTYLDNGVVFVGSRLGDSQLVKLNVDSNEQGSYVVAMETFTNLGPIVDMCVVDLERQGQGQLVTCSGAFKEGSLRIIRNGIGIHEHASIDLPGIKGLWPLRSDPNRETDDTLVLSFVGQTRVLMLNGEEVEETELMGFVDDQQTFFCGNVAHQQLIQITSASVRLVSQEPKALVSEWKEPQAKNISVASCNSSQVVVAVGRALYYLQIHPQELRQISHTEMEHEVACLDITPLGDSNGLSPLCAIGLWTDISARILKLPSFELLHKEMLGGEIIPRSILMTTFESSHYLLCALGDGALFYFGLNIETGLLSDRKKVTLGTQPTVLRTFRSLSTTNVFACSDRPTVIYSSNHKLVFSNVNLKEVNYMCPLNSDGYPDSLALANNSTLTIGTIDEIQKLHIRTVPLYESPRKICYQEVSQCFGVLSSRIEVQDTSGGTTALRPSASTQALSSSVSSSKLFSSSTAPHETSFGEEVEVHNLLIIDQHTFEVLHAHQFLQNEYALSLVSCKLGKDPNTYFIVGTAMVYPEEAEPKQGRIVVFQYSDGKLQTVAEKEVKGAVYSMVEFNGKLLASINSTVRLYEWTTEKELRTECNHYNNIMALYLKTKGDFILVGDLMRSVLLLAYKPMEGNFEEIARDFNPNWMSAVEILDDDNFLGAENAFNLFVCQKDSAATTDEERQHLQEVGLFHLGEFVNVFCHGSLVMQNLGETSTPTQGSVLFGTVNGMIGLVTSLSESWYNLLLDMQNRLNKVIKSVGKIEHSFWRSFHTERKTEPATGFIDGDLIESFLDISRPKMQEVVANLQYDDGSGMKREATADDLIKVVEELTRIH

Compound | inhibition at 0.2 µM (CDK4; Calu-1 cells, 200 nM, 16 hours) [%] | inhibition at 0.2 µM (CDK4; Calu-1, 16 h) [%] | CyclinD1 Degradation (200 nM) (cyclin D1)
CC(=O)c1c(C)c2cnc(Nc3ccc(N4CCN(C(=O)CCCCCCCCC(=O)Nc5ccccc5C(=O)Nc5nc(C)c(C)s5)CC4)cn3)nc2n(C2CCCC2)c1=O [CPD-162, 2-(10-(4-(6-((6-Acetyl-8-cyclopentyl-5-methyl-7-oxo-7,8-dihydropyrido[2,3-d]pyrimidin-2-yl)amino)pyridin-3-yl)piperazin-1-yl)-10-oxodecanamido)-N-(4,5-dimethylthiazol-2-yl)benzamide] |  | < 30 | C (protein percentage degradation <50%, and >=30%)
CC(=O)c1c(C)c2cnc(Nc3ccc(N4CCN(C(=O)CCOCCOCCOCCOCCOCCC(=O)Nc5ccccc5C(=O)Nc5nc(C)c(C)s5)CC4)cn3)nc2n(C2CCCC2)c1=O [CPD-163, 19-(4-(6-((6-Acetyl-8-cyclopentyl-5-methyl-7-oxo-7,8-dihydropyrido[2,3-d]pyrimidin-2-yl)amino)pyridin-3-yl)piperazin-1-yl)-N-(2-((4,5-dimethylthiazol-2-yl)carbamoyl)phenyl)-19-oxo-4,7,10,13,16-pentaoxanonadecanamide] |  | 50 to 80 | A (protein percentage degradation >=80%)
CC(=O)c1c(C)c2cnc(Nc3ccc(N4CCN(C(=O)CCCNc5ccc(C)c(C(=O)Nc6nc(C)c(C)s6)c5)CC4)cn3)nc2n(C2CCCC2)c1=O [CPD-165, 5-((4-(4-(6-((6-Acetyl-8-cyclopentyl-5-methyl-7-oxo-7,8-dihydropyrido[2,3-d]pyrimidin-2-yl)amino)pyridin-3-yl)piperazin-1-yl)-4-oxobutyl)amino)-N-(4,5-dimethylthiazol-2-yl)-2-methylbenzamide] |  | < 30 | D (protein percentage degradation <30%)
CC(=O)c1c(C)c2cnc(Nc3ccc(N4CCN(CC(=O)NCCOCCOCCOCCOCCOCCNc5ccc(CNc6nc(C)c(C)s6)c(C)c5)CC4)cn3)nc2n(C2CCCC2)c1=O [CPD-166, 2-(4-(6-((6-Acetyl-8-cyclopentyl-5-methyl-7-oxo-7,8-dihydropyrido[2,3-d]pyrimidin-2-yl)amino)pyridin-3-yl)piperazin-1-yl)-N-(17-((4-(((4,5-dimethylthiazol-2-yl)amino)methyl)-3-methylphenyl)amino)-3,6,9,12,15-pentaoxaheptadecyl)acetamide] | 30 to 50 |  | B (protein percentage degradation <80%, and >=50%)
CC(=O)c1c(C)c2cnc(Nc3ccc(N4CCN(CC(=O)NCCCCCCC(=O)Nc5ccccc5C(=O)Nc5nc(C)c(C)s5)CC4)cn3)nc2n(C2CCCC2)c1=O [CPD-169, 2-(7-(2-(4-(6-((6-Acetyl-8-cyclopentyl-5-methyl-7-oxo-7,8-dihydropyrido[2,3-d]pyrimidin-2-yl)amino)pyridin-3-yl)piperazin-1-yl)acetamido)heptanamido)-N-(4,5-dimethylthiazol-2-yl)benzamide] | < 30 |  | D (protein percentage degradation <30%)
CC(=O)c1c(C)c2cnc(Nc3ccc(N4CCN(CC(=O)NCCCCCC(=O)Nc5ccccc5C(=O)Nc5nc(C)c(C)s5)CC4)cn3)nc2n(C2CCCC2)c1=O [CPD-172, 2-(6-(2-(4-(6-((6-Acetyl-8-cyclopentyl-5-methyl-7-oxo-7,8-dihydropyrido[2,3-d]pyrimidin-2-yl)amino)pyridin-3-yl)piperazin-1-yl)acetamido)hexanamido)-N-(4,5-dimethylthiazol-2-yl)benzamide] | 30 to 50 |  | D (protein percentage degradation <30%)
CC(=O)c1c(C)c2cnc(Nc3ccc(N4CCN(CC(=O)NCCOCCOCCOCCOCCOCCC(=O)Nc5ccccc5C(=O)Nc5nc(C)c(C)s5)CC4)cn3)nc2n(C2CCCC2)c1=O [CPD-175, 2-(1-(4-(6-((6-Acetyl-8-cyclopentyl-5-methyl-7-oxo-7,8-dihydropyrido[2,3-d]pyrimidin-2-yl)amino)pyridin-3-yl)piperazin-1-yl)-2-oxo-6,9,12,15,18-pentaoxa-3-azahenicosan-21-amido)-N-(4,5-dimethylthiazol-2-yl)benzamide] |  | > 80 | A (protein percentage degradation >=80%)
CC(=O)c1c(C)c2cnc(Nc3ccc(N4CCN(C(=O)CCOCCOCCOCCOCCC(=O)Nc5ccccc5C(=O)Nc5nc(C)c(C)s5)CC4)cn3)nc2n(C2CCCC2)c1=O [CPD-176, 16-(4-(6-((6-Acetyl-8-cyclopentyl-5-methyl-7-oxo-7,8-dihydropyrido[2,3-d]pyrimidin-2-yl)amino)pyridin-3-yl)piperazin-1-yl)-N-(2-((4,5-dimethylthiazol-2-yl)carbamoyl)phenyl)-16-oxo-4,7,10,13-tetraoxahexadecanamide] |  | > 80 | A (protein percentage degradation >=80%)
CC(=O)c1c(C)c2cnc(Nc3ccc(N4CCN(CCCCCCCCCCCC(=O)Nc5ccccc5C(=O)Nc5nc(C)c(C)s5)CC4)cn3)nc2n(C2CCCC2)c1=O [CPD-177, 2-(12-(4-(6-((6-Acetyl-8-cyclopentyl-5-methyl-7-oxo-7,8-dihydropyrido[2,3-d]pyrimidin-2-yl)amino)pyridin-3-yl)piperazin-1-yl)dodecanamido)-N-(4,5-dimethylthiazol-2-yl)benzamide] |  | < 30 | D (protein percentage degradation <30%)
CC(=O)c1c(C)c2cnc(Nc3ccc(N4CCN(CCOCCOCCOCCC(=O)Nc5ccccc5C(=O)Nc5nc(C)c(C)s5)CC4)cn3)nc2n(C2CCCC2)c1=O [CPD-178, 2-(3-(2-(2-(2-(4-(6-((6-Acetyl-8-cyclopentyl-5-methyl-7-oxo-7,8-dihydropyrido[2,3-d]pyrimidin-2-yl)amino)pyridin-3-yl)piperazin-1-yl)ethoxy)ethoxy)ethoxy)propanamido)-N-(4,5-dimethylthiazol-2-yl)benzamide] |  | < 30 | D (protein percentage degradation <30%)

Continued, in another order:

inhibition at 0.2 µM (CDK4; Calu-1 cells, 200 nM, 16 hours) [%] | Compound | inhibition at 0.2 µM (CDK4; Calu-1, 16 h) [%] | CyclinD1 Degradation (200 nM) (cyclin D1)
50 to 80 | CNc1ccc(C(=O)Nc2nc(C)c(C)s2)c(NC(=O)CCOCCOCCNC(=O)CN2CCN(c3ccc(Nc4ncc5c(C)c(C(C)=O)c(=O)n(C6CCCC6)c5n4)nc3)CC2)c1 [CPD-164, 2-(3-(2-(2-(2-(4-(6-((6-Acetyl-8-cyclopentyl-5-methyl-7-oxo-7,8-dihydropyrido[2,3-d]pyrimidin-2-yl)amino)pyridin-3-yl)piperazin-1-yl)acetamido)ethoxy)ethoxy)propanamido)-N-(4,5-dimethylthiazol-2-yl)-4-(methylamino)benzamide] |  | A (protein percentage degradation >=80%)
50 to 80 | CCCCNc1ccc(C(=O)Nc2nc(C)c(C)s2)c(NC(=O)CCOCCOCCNC(=O)CN2CCN(c3ccc(Nc4ncc5c(C)c(C(C)=O)c(=O)n(C6CCCC6)c5n4)nc3)CC2)c1 [CPD-168, 2-(3-(2-(2-(2-(4-(6-((6-Acetyl-8-cyclopentyl-5-methyl-7-oxo-7,8-dihydropyrido[2,3-d]pyrimidin-2-yl)amino)pyridin-3-yl)piperazin-1-yl)acetamido)ethoxy)ethoxy)propanamido)-4-(butylamino)-N-(4,5-dimethylthiazol-2-yl)benzamide] |  | A (protein percentage degradation >=80%)
50 to 80 | CC(=O)c1c(C)c2cnc(Nc3ccc(N4CCN(CC(=O)NCCOCCOCCOCCOCCC(=O)Nc5ccccc5C(=O)Nc5nc(C)c(C)s5)CC4)cn3)nc2n(C2CCCC2)c1=O [CPD-170, 2-(1-(4-(6-((6-Acetyl-8-cyclopentyl-5-methyl-7-oxo-7,8-dihydropyrido[2,3-d]pyrimidin-2-yl)amino)pyridin-3-yl)piperazin-1-yl)-2-oxo-6,9,12,15-tetraoxa-3-azaoctadecan-18-amido)-N-(4,5-dimethylthiazol-2-yl)benzamide] |  | A (protein percentage degradation >=80%)
< 30 | CC(=O)c1c(C)c2cnc(Nc3ccc(N4CCN(CC(=O)NCCCC(=O)Nc5ccccc5C(=O)Nc5nc(C)c(C)s5)CC4)cn3)nc2n(C2CCCC2)c1=O [CPD-171, 2-(4-(2-(4-(6-((6-Acetyl-8-cyclopentyl-5-methyl-7-oxo-7,8-dihydropyrido[2,3-d]pyrimidin-2-yl)amino)pyridin-3-yl)piperazin-1-yl)acetamido)butanamido)-N-(4,5-dimethylthiazol-2-yl)benzamide] |  | D (protein percentage degradation <30%)
> 80 | CC(=O)c1c(C)c2cnc(Nc3ccc(N4CCN(CC(=O)NCCOCCOCCOCCOCCOCCOCCC(=O)Nc5ccccc5C(=O)Nc5nc(C)c(C)s5)CC4)cn3)nc2n(C2CCCC2)c1=O [CPD-173, 2-(1-(4-(6-((6-Acetyl-8-cyclopentyl-5-methyl-7-oxo-7,8-dihydropyrido[2,3-d]pyrimidin-2-yl)amino)pyridin-3-yl)piperazin-1-yl)-2-oxo-6,9,12,15,18,21-hexaoxa-3-azatetracosan-24-amido)-N-(4,5-dimethylthiazol-2-yl)benzamide] |  | A (protein percentage degradation >=80%)
> 80 | CC(=O)c1c(C)c2cnc(Nc3ccc(N4CCN(CC(=O)NCCCCC(=O)Nc5ccccc5C(=O)Nc5nc(C)c(C)s5)CC4)cn3)nc2n(C2CCCC2)c1=O [CPD-174, 2-(5-(2-(4-(6-((6-Acetyl-8-cyclopentyl-5-methyl-7-oxo-7,8-dihydropyrido[2,3-d]pyrimidin-2-yl)amino)pyridin-3-yl)piperazin-1-yl)acetamido)pentanamido)-N-(4,5-dimethylthiazol-2-yl)benzamide] |  | A (protein percentage degradation >=80%)
